Measurements taken from US20090281322A1, “THERAPEUTICALLY USEFUL SUBSTITUTED 1,7-DIPHENYL-1,2,3,5,6,7-HEXAHYDROPYRIDO[3,2,1-Ij]QUINOLINE COMPOUNDS” (ALLERGAN, INC., priority 2008, published 2009).

What follows are molecules tested against S1P3 receptor (Homo sapiens, UniProt Q99500) (assay: in vitro activity in the S1P3 receptor). Settings: not given.
Assay type: cell-based
Description: The in vitro activity of these compounds in the S1P3 receptor was determined using the assay described in paragraph [0067] of United States Patent Application Publication No. 20070232682, which published on Oct. 4, 2007.

Chain of S1P3 receptor (Q99500 whole entry): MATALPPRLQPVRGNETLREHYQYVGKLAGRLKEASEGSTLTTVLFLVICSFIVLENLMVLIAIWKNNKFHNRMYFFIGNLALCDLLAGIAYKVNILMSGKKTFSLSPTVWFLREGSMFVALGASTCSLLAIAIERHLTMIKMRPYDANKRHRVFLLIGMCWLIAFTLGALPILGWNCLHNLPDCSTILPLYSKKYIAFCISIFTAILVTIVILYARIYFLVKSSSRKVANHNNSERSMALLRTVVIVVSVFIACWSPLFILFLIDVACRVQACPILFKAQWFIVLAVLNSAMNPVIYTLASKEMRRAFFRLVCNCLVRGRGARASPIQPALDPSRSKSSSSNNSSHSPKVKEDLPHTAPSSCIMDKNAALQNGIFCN

| Structure (SMILES) | S1P3 % Inhibition [%] |
| --- | --- |
| CC#CCOC(=O)Nc1cc2c3c(c1)C(c1ccccc1)CCN3CCC2c1ccccc1 (stereo not drawn) [compound 353, But-2-ynyl 1,7-diphenyl-1,2,3,5,6,7-hexahydropyrido[3,2,1-ij]quinolin-9-ylcarbamate] | 98 |
| C=CCCOC(=O)Nc1cc2c3c(c1)C(c1ccccc1)CCN3CCC2c1ccccc1 (stereo not drawn) [compound 354, But-3-enyl 1,7-diphenyl-1,2,3,5,6,7-hexahydropyrido[3,2,1-ij]quinolin-9-ylcarbamate] | 97 |

Same assay, conditions: Activity potency nM, (IC50)

| Structure (SMILES) | IC50 [nM] |
| --- | --- |
| CCOC(=O)Nc1cc2c3c(c1)C(c1cccc(F)c1)CCN3CCC2c1cccc(F)c1 (stereo not drawn) [compound 093, Ethyl 1,7-bis(3-fluorophenyl)-1,2,3,5,6,7-hexahydropyrido[3,2,1-ij]quinolin-9-ylcarbamate] | 48 |
| CCCCNC(=O)Nc1cc2c3c(c1)C(c1ccccc1)CCN3CCC2c1ccccc1 (stereo not drawn) [compound 485, 1-Butyl-3-(1,7-diphenyl-1,2,3,5,6,7-hexahydropyrido[3,2,1-ij]quinolin-9-yl)urea] | 52 |
| CCCOC(=O)Nc1cc2c3c(c1)C(c1cccc(F)c1)CCN3CCC2c1cccc(F)c1 (stereo not drawn) [compound 094, Propyl 1,7-bis(3-fluorophenyl)-1,2,3,5,6,7-hexahydropyrido[3,2,1-ij]quinolin-9-ylcarbamate] | 234 |
| CC#CCOC(=O)Nc1cc2c3c(c1)C(c1ccccc1)CCN3CCC2c1ccccc1 (stereo not drawn) [compound 353, But-2-ynyl 1,7-diphenyl-1,2,3,5,6,7-hexahydropyrido[3,2,1-ij]quinolin-9-ylcarbamate] | 13 |
| CC(C)COC(=O)Nc1cc2c3c(c1)C(c1ccccc1)CCN3CCC2c1ccccc1 (stereo not drawn) [compound 274, Isobutyl 1,7-diphenyl-1,2,3,5,6,7-hexahydropyrido[3,2,1-ij]quinolin-9-ylcarbamate] | 64 |
| O=C(Nc1cc2c3c(c1)C(c1ccccc1)CCN3CCC2c1ccccc1)OCCF (stereo not drawn) [compound 095, 2-fluoroethyl 1,7-diphenyl-1,2,3,5,6,7-hexahydropyrido[3,2,1-ij]quinolin-9-ylcarbamate] | 56 |
| COC(=O)Nc1cc2c3c(c1)C(c1cccc(F)c1)CCN3CCC2c1cccc(F)c1 (stereo not drawn) [compound 779, Methyl 1,7-bis(3-fluorophenyl)-1,2,3,5,6,7-hexahydropyrido[3,2,1-ij]quinolin-9-ylcarbamate] | 23 |
| CCCCOC(=O)Nc1cc2c3c(c1)C(c1cccc(F)c1)CCN3CCC2c1cccc(F)c1 (stereo not drawn) [compound 202, Butyl 1,7-bis(3-fluorophenyl)-1,2,3,5,6,7-hexahydropyrido[3,2,1-ij]quinolin-9-ylcarbamate] | 272 |
| O=C(Nc1cc2c3c(c1)C(c1ccccc1)CCN3CCC2c1ccccc1)OCc1ccccc1 (stereo not drawn) [compound 278, Benzyl 1,7-diphenyl-1,2,3,5,6,7-hexahydropyrido[3,2,1-ij]quinolin-9-ylcarbamate] | 66 |
| O=C(NCc1ccoc1)Nc1cc2c3c(c1)C(c1ccccc1)CCN3CCC2c1ccccc1 (stereo not drawn) [compound 258, 1-(1,7-diphenyl-1,2,3,5,6,7-hexahydropyrido[3,2,1-ij]quinolin-9-yl)-3-(furan-3-ylmethyl)urea] | 59 |
| CCNC(=O)Nc1cc2c3c(c1)C(c1ccccc1)CCN3CCC2c1ccccc1 (stereo not drawn) [compound 484, 1-(1,7-diphenyl-1,2,3,5,6,7-hexahydropyrido[3,2,1-ij]quinolin-9-yl)-3-ethylurea] | 77 |
| O=C(NCCCl)Nc1cc2c3c(c1)C(c1ccccc1)CCN3CCC2c1ccccc1 (stereo not drawn) [compound 769, 1-(2-chloroethyl)-3-(1,7-diphenyl-1,2,3,5,6,7-hexahydropyrido[3,2,1-ij]quinolin-9-yl)urea] | 374 |
| CCCCOC(=O)Nc1cc2c3c(c1)C(c1ccccc1)CCN3CCC2c1ccccc1 (stereo not drawn) [compound 276, Butyl 1,7-diphenyl-1,2,3,5,6,7-hexahydropyrido[3,2,1-ij]quinolin-9-ylcarbamate] | 8.7 |
| CCCNC(=S)Nc1cc2c3c(c1)C(c1ccccc1)CCN3CCC2c1ccccc1 (stereo not drawn) [compound 255, 1-(1,7-diphenyl-1,2,3,5,6,7-hexahydropyrido[3,2,1-ij]quinolin-9-yl)-3-propylthiourea] | 153 |
| C#CCOC(=O)Nc1cc2c3c(c1)C(c1ccccc1)CCN3CCC2c1ccccc1 (stereo not drawn) [compound 352, Prop-2-ynyl 1,7-diphenyl-1,2,3,5,6,7-hexahydropyrido[3,2,1-ij]quinolin-9-ylcarbamate] | 40 |
| O=C(Nc1cc2c3c(c1)C(c1ccccc1)CCN3CCC2c1ccccc1)N1CCOCC1 (stereo not drawn) [compound 983, N-(1,7-diphenyl-1,2,3,5,6,7-hexahydropyrido[3,2,1-ij]quinolin-9-yl)morpholine-4-carboxamide] | 130 |
| O=C(Nc1cc2c3c(c1)C(c1ccccc1)CCN3CCC2c1ccccc1)Oc1ccccc1 (stereo not drawn) [compound 277, Phenyl 1,7-diphenyl-1,2,3,5,6,7-hexahydropyrido[3,2,1-ij]quinolin-9-ylcarbamate] | 901 |
| COC(=O)Nc1cc2c3c(c1)C(c1ccccc1)CCN3CCC2c1ccccc1 (stereo not drawn) [compound 272, methyl 1,7-diphenyl-1,2,3,5,6,7-hexahydropyrido[3,2,1-ij]quinolin-9-ylcarbamate] | 8.3 |
| CC(C)(C)NC(=O)Nc1cc2c3c(c1)C(c1ccccc1)CCN3CCC2c1ccccc1 (stereo not drawn) [compound 148, 1-tert-butyl-3-(1,7-diphenyl-1,2,3,5,6,7-hexahydropyrido[3,2,1-ij]quinolin-9-yl)urea] | 38 |
| C=CCNC(=O)Nc1cc2c3c(c1)C(c1ccccc1)CCN3CCC2c1ccccc1 (stereo not drawn) [compound 773, 1-allyl-3-(1,7-diphenyl-1,2,3,5,6,7-hexahydropyrido[3,2,1-ij]quinolin-9-yl)urea] | 160 |
| O=C(Nc1cc2c3c(c1)C(c1ccccc1)CCN3CCC2c1ccccc1)OCCCCl (stereo not drawn) [compound 205, 3-chloropropyl 1,7-diphenyl-1,2,3,5,6,7-hexahydropyrido[3,2,1-ij]quinolin-9-ylcarbamate] | 8 |
| C=CCCOC(=O)Nc1cc2c3c(c1)C(c1ccccc1)CCN3CCC2c1ccccc1 (stereo not drawn) [compound 354, But-3-enyl 1,7-diphenyl-1,2,3,5,6,7-hexahydropyrido[3,2,1-ij]quinolin-9-ylcarbamate] | 16 |
| CN(C)C(=O)Nc1cc2c3c(c1)C(c1ccccc1)CCN3CCC2c1ccccc1 (stereo not drawn) [compound 405, 3-(1,7-diphenyl-1,2,3,5,6,7-hexahydropyrido[3,2,1-ij]quinolin-9-yl)-1,1-dimethylurea] | 131 |
| O=C(Nc1cc2c3c(c1)C(c1ccccc1)CCN3CCC2c1ccccc1)OCCCCCl (stereo not drawn) [compound 206, 4-chlorobutyl 1,7-diphenyl-1,2,3,5,6,7-hexahydropyrido[3,2,1-ij]quinolin-9-ylcarbamate] | 62 |
| CCCCCCNC(=O)Nc1cc2c3c(c1)C(c1ccccc1)CCN3CCC2c1ccccc1 (stereo not drawn) [compound 487, 1-(1,7-diphenyl-1,2,3,5,6,7-hexahydropyrido[3,2,1-ij]quinolin-9-yl)-3-hexylurea] | 301 |
| CCCOC(=O)Nc1cc2c3c(c1)C(c1ccccc1)CCN3CCC2c1ccccc1 (stereo not drawn) [compound 275, Propyl 1,7-diphenyl-1,2,3,5,6,7-hexahydropyrido[3,2,1-ij]quinolin-9-ylcarbamate] | 12.2 |
| CCCCCCNC(=S)Nc1cc2c3c(c1)C(c1ccccc1)CCN3CCC2c1ccccc1 (stereo not drawn) [compound 256, 1-(1,7-diphenyl-1,2,3,5,6,7-hexahydropyrido[3,2,1-ij]quinolin-9-yl)-3-hexylthiourea] | 78 |
| CCOC(=O)Nc1cc2c3c(c1)C(c1ccccc1)CCN3CCC2c1ccccc1 (stereo not drawn) [compound 273, Ethyl 1,7-diphenyl-1,2,3,5,6,7-hexahydropyrido[3,2,1-ij]quinolin-9-ylcarbamate] | 63 |
